Reference: US5066674A, “Carbamate inhibitors of cholesterol esterase and their use as hypolipidemic and hypocaloric agents” (University of Iowa Research Foundation, priority 1990, dated 1991)

Target: Pancreatic cholesterol esterase (CEase)
Assay: CEase-catalyzed hydrolysis of p-nitrophenylbutyrate (PNPB), irreversible inhibition timecourse
Type: biochemical
Settings: for Second-order inhibition rate constant ki/Ki: PNPB substrate, 25.0 °C, pH 7.3, 0.1M sodium phosphate, 0.1N NaCl, 1 mM Triton X100; for t1/2, half-life of irreversible inhibition: in presence of 10^-5 M inhibitor, calculated t1/2 = ln(2)/(ki[I])
Experimental: The CEase-catalyzed hydrolysis of the water-soluble substrate p-nitrophenylbutyrate (PNPB) is the reaction that was routinely used to characterize irreversible inhibitors. The reaction is followed at 25.0±0.1° C. and pH 7.3 in 0.1M sodium phosphate buffer that contains 0.1N NaCl, 1 mM Triton X100, and the appropriate concentrations of CEase and PNPB. Characterization of inhibitors occurs in three steps: First, inhibitor is added to CEase and the percent activity of the enzyme is measured as a function of time. A corresponding control (contains no inhibitor) measures the 100% activity level. Secondly, the pseudo-first order inhibition rate constant is calculated from the activity versus time data.
%A=(%AO -%Ainf)e^-kt +%Ainf (1)
The pseudofirst order inhibition rate constant is plotted versus [I]. If the plot is linear, the second-order inhibition rate constant, ki /Ki, is the slope of a linear-leastsquares fit of the plot. And, thirdly, if plot is nonlinear and hyperbolic, the following inhibition mechanism is indicated: [drawing 5] In this mechanism, the inhibitor first forms a reversible, noncovalent complex, EI, with the enzyme. An enzymic nucleophile, presumably the active site serine (cf. Scheme I) then attacks the carbonyl carbon of the carbamate functionality of the inhibitor, with subsequent expulsion of the aromatic leaving group. For the above mechanism, the dependence of k on [I] is described by the following equation: [formula] […] From this fit the maximum first-order inhibition rate constant (ki) and the dissociation constant of EI (Ki) were determined, and consequently ki /Ki could be calculated.

Row | Structure (SMILES) | Second-order inhibition rate constant ki/Ki [M⁻¹ s⁻¹] | t1/2, half-life of irreversible inhibition [min] | Irreversible inhibition of CEase (statement in words) (comparison of second-order inhibition rate constants of Table I)
1 | CCCCCNC(=O)Oc1ccc(NC(C)=O)cc1 [p-Acetamidophenyl n-Pentyl Carbamate] | 100 | 11.6 | 
2 | CCCCCCNC(=O)Oc1ccc(NC(C)=O)cc1 [p-Acetamidophenyl n-Hexyl Carbamate] | 493 | 2.3 | 
3 | CCCCCCCCNC(=O)Oc1ccc(NC(C)=O)cc1 [p-Acetamidophenyl n-Octyl Carbamate] | 100 | 11.6 | 
4 | CCCCNC(=O)Oc1ccc(NC(C)=O)cc1 [p-Acetamidophenyl n-Butyl Carbamate] | 40 | 29 | 
5 | CCCCCCCCNC(=O)Oc1ccc2ccccc2c1 [2-Naphthyl n-Octyl Carbamate] | 1350 | 0.86 | most potent irreversible carbamate inhibitor of CEase
